Results: patent US20050145571A1, “Extraction and recovery of ions from a solution” (priority 2001, published 2005)

Conditions: at 23° C

Question: Which solubility does the source give for O=S(=O)([O-])C(F)(F)C(F)(F)C(F)(F)C(F)(F)C(F)(F)C(F)(F)C(F)(F)C(F)(F)F.[K+] [KPFS-8, potassium PFS-8] here?
Answer: ≤ 1000 µg/mL
